# Measured values reported in patent publication US9365554B2, “Viral polymerase inhibitors” (BIOTA SCIENTIFIC MANAGEMENT PTY LTD, priority 2012, dated 2016).
# Legend:
# 1b (BK) NS5BΔ21 = molecular target: T1, 1b (BK) NS5BΔ21 (Hepatitis C virus genotype 1b, UniProt P26663); experiment: HCV Polymerase Inhibition Assay; format: biochemical; details: in each of the HCV assays tested (polymerase and replicon assays)
# T1 construct: 100 nM, 1b (BK) NS5BΔ21
# Experimental: HCV polymerase reactions were carried out using a modified method of Howe et al., Antimicrobial Agents and Chemotherapy 2004 48(12): 4813-4821. Reactions contained a final concentration of, 0.5% DMSO, 100 nM, 1b (BK) NS5BΔ21, 20 mM Tris-HCl pH 7.5, 5 mM MgCl2, 5 mM MnCl2, 3 mM DTT, 0.05% BSA, 0.2 U/μL RNasin, 10 μg/mL Poly(rC) template, GTP (at Km) and 0.05 μCi/μL ^33P-GTP in a total reaction volume of 50 μL. Compounds were tested in a three fold dilution series, for example starting from 50 μM. Reactions were initiated with the addition of GTP and terminated after 90 min with 50 μL ice cold 0.2 M EDTA. Terminated reactions were transferred to DEAE 96-well filter plates, unincorporated nucleotides washed from the filters and 50 μL scintillation fluid added prior to reading on a scintillation counter. The compound concentration that reduced ^33P-GTP incorporation by 50% (IC50) was calculated using non-linear regression.
# [1] = Aqueous Solubility (laser nephelometry); format: physicochemical; details: at both pH2 and pH6.5; good solubility when >25 ug/mL
# Experimental: Test compounds prepared in DMSO were screened in duplicate over a range of concentrations (1.6-100 ug/mL) in different aqueous media (for example a pH6.5 buffers which are relevant to the stomach and upper regions of the small intestine and therefore important when predicting the amount of drug likely to be in solution following oral administration). Test compounds were serially diluted in 100% DMSO ranging from 10-0.16 mg/mL. These titrated DMSO stocks were then further diluted 1:100 with assay buffer and added to test plates (UV Star Griener 384 well plates), maintaining the DMSO concentration at 1%.
# T1 sequence (P26663 2420-2989, stated change not applied): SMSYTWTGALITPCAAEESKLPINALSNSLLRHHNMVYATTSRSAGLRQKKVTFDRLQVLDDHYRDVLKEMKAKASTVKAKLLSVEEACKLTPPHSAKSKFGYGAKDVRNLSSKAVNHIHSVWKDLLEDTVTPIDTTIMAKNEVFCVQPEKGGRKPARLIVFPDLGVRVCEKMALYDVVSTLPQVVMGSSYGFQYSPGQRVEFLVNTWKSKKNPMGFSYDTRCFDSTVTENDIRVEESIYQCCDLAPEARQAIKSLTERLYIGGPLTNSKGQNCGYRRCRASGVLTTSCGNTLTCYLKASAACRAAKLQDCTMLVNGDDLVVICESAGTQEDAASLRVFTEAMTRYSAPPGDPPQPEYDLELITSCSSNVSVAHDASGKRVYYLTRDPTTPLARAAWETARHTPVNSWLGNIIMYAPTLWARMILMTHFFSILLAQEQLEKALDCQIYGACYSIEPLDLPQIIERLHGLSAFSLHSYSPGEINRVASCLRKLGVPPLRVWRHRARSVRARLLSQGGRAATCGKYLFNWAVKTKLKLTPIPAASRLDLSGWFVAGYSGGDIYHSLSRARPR
Compound,times more potent than Compound A (1b (BK) NS5BΔ21),solubility (in words) [1]
"CCN(c1cc2nn(-c3ccc(C)cn3)c(C(=O)NC)c2cc1C1CC1)S(C)(=O)=O [Compound 5, 5-cyclopropyl-6-[ethyl(methylsulfonyl)amino]-N-methyl-2-(5-methylpyridin-2-yl)-2H-indazole-3-carboxamide]",at least 10 times,good solubility
"CCN(c1cc2nn(-c3ccc(C)nc3)c(C(=O)NC)c2cc1C1CC1)S(C)(=O)=O [Compound A, 5-Cyclopropyl-6-[ethyl(methylsulfonyl)amino]-N-methyl-2-(6-methylpyridin-3-yl)-2H-indazole-3-carboxamide, reference compound]",–,very poorly soluble
